From patent US20150216975A1, “NANOVECTOR BASED DRUG DELIVERY SYSTEM FOR OVERCOMING DRUG RESISTANCE” (WILLIAM MARSH RICE UNIVERSITY, priority 2012, published 2015)

Experiments:
[1] = test system: HER2-neu+ breast cancer cells; experiment: Total cell protein of breast cancer cells after antibody-guided PEG-HCC drugs and pump inhibitors (FIG. 4B); format: cell-based, human; conditions: 24 hours
Procedure: (§1) Applicants also investigated whether the potentiation of Vin and Doc toxicity (by Halo and Indo) was applicable to other cancer types. Applicants obtained human breast and cervical cancer cells from the ATCC and grew them in 96 well format.
(§2) In a pair of 96-well plates, confluent cancer cells were treated with 1 μM (Indo or Halo)/PEG-HCC and/or 1 μM (Doc or Vin)/PEG-HCC. The inhibitors were guided to the cell surface using anti-HER2 antibodies. The chemotherapeutics were guided using EGFR antibodies. After incubation for 24 hours, one plate was used to measure total cell protein, and the other was used in dye labeling studies (as described above). This was done for both HER2-neu+ breast and HER2-neu+ cervical cancer cells (where HER2-neu is human epidermal growth factor receptor-2).
100 nM Doc delivered using EGFR IgG yielded 51% of the control, whereas 100 nM Vin yielded 65% of the control. Halo increased the toxicity of Doc, thereby lowering the total protein to 30% of the control. […] In the panels of FIG. 4D, the dye retention of these breast cancer cells is shown under the same conditions. All four compounds cause a significant brightening of the cells. The inhibitor and chemotherapeutic combination panels also indicate that dye retention is potentiated in all four combinations/permutations.

[2] = test system: HER2-neu+ cervical cancer cells; experiment: Total cell protein of cervical cancer cells after antibody-guided PEG-HCC drugs and pump inhibitors (FIG. 4A); format: cell-based, human; conditions: 24 hours
Procedure: as §1, §2
100 nM Doc delivered using EGFR IgG yielded 78% of the control, whereas 100 nM Vin yielded 87% of the control. Halo increased the toxicity of Doc, lowering the total protein to 25% of the control. […] Indo increased the toxicity of Doc slightly (from 78% to 68%) and Vin greatly (from 87% to 36%). In the panels of FIG. 4C, the dye retention of these cervical cancer cells is shown under the same conditions. All four compounds cause a significant brightening of the cells.

[3] = test system: human breast cancer cells; experiment: Toxicity of Doc/Vin and Halo/Indo delivered as peptidyl-PEG-HCC in breast cancer cells (FIG. 12); format: cell-based; conditions: 50 nM drug; for potentiation of toxicity by Indo: 1 μM Indo as peptidyl-PEG-HCC
Procedure: (§3) In all cases, living cell numbers were calculated at n=6 individual wells and assayed using Hoe. Cells were incubated for 24 hours with Doc or Vin and targeted to the cell surface with peptidyl-PEG-HCC. The targeting peptidyl sequence was DFKLFAVTIKYR, which targets Intigrins αvβ3 and α5β. FIGS. 12B-12C provide data illustrating that drug pump inhibitors Halo and Indo potentiate the effects of Vin and Doc on GBM and breast cancer cells. Cells were incubated with PEG-HCC (control), 50 nM Doc or Vin, or Doc and Vin as peptidyl-PEG-HCC (using DFKLFAVTIKYR targeting Intigrins αvβ3 and α5β). Additionally, these four incubants were treated with PEG-HCC (control), 1 μM Halo or Indo, or Halo and Indo as peptidyl-PEG-HCC (using YRWYGYTPQNVI targeting EGFR).

GBM cells (BT111 cells) = experiment: Toxicity of Doc/Vin and Halo/Indo delivered as peptidyl-PEG-HCC in GBM cells, living cell numbers (FIG. 12); format: cell-based, human; conditions: gliomal cells, 24 hours, 50 nM drug; for toxicity in the presence of both pump inhibitors (Halo and Indo): 1 μM Halo and Indo as peptidyl-PEG-HCC; for toxicity on co-incubation with Halo: 1 μM Halo as peptidyl-PEG-HCC (YRWYGYTPQNVI)
Procedure: as §3

[4] = test system: glioblastoma cells grown in culture; experiment: Living and dead GBM cell counts after Drug/PEG-HCC with or without Halo (FIG. 2B-2E); format: cell-based, human; conditions: for dead cell numbers when Halo is used in conjunction: 24 hours, drug/PEG-HCC with Halo (FIG. 2C)
Procedure: (§4) The drugs (Vin and Doc) were delivered to a final concentration of 100 nM in the form of GFAPAB/Drug/PEG-HCC. In some experiments, pump inhibitors Haloperidol (Halo) and Indomethacin (Indo) were added at a final concentration of 2 μM in the form of Il-13RAB/Inhibitor/PEG-HCC. Controls consisting of unloaded PEG-HCC, drug/inhibitor loaded PEG-HCC, GFAPAB, or saline were also used. Cells were treated for 24 hours with GFAPAB/Drug/PEG-HCC and/or Il-13RAB/Halo/PEG-HCC. Next, the cells were incubated for 1 hour with Rh123, BCECF-AM and Hoe, as previously described. Cells were then imaged at ×30 magnification using filters for Rh123, BCECF and Hoe.
Furthermore, it is shown in FIG. 2C that the dead cell numbers are elevated when Halo is used in conjunction with both Vin and Doc.
FIGS. 2D-2E show additional data relating to Halo-mediated potentiation of Vin, Doc and SN38 toxicity in HADES compositions.

[5] = test system: xenobiotic pumps in human primary GBM cells; experiment: Retention of xenobiotic pump dye substrates (Rh123, BCECF, Hoe) in GBM cells (FIG. 1, 2A, 2F); format: cell-based; conditions: for dye retention, chemotherapeutic drug alone / dye accumulation in drug and inhibitor combinations / dye retention, pump inhibitor loaded on PEG-HCC targeted by IL-13R IgGs: GBM cells; for dye retention, chemotherapeutic drug alone / dye accumulation in drug and inhibitor combinations: 24 hours; for dye retention, chemotherapeutic drug alone: 100 nM as GFAPAB/Drug/PEG-HCC; for dye accumulation in drug and inhibitor combinations: 100 nM drug and 2 μM inhibitor on targeted PEG-HCC (FIG. 2A); for retention of dyes (Rh123, BCECF, Hoe): human GBM cells, ninety minutes, 20 μM Fumitremorgin C, 200 μM Indomethacin; for dye retention, pump inhibitor loaded on PEG-HCC targeted by IL-13R IgGs: Il-13RAB/Inhibitor/PEG-HCC (FIG. 2A, 2F)
Text: Applicants investigated the ability of human primary glioma cells to retain dyes in the absence and presence of known drug pump inhibitors. […] After ninety minutes, the cells were fixed using ice-cold 2% paraformaldehyde. The fixed cells were stored overnight in a refrigerator. The cells were then washed three times in phosphate buffered saline at pH 7.4 (PBS) and imaged in a fluorescence microscope.
In this experiment, PEG-HCCs were loaded with Halo, Sulfinpyrazone (Sulf) or Indo. The same methodologies outlined above were used. The constructs were then targeted to GBM cells by IL-13R IgGs.
as §4

GBM cells = experiment: Potentiation of Vin or Doc toxicity in GBM cells by targeted vs untargeted Halo or Indo via IgG/PEG-HCC delivery, cell numbers (FIG. 3); format: cell-based, human; conditions: for increase of toxicity by pump inhibition by Halo (targeted vs untargeted, untargeted averaged to 100%) / increase of toxicity by pump inhibition by Indo (targeted vs untargeted, untargeted averaged to 100%): FIG. 3B; for cell number (% of control): 24 hours
Procedure: To confirm the potentiation effect of chemotherapeutic agents and pump inhibitors, Applicants performed a similar experiment to that shown in FIG. 2. In these experiments, Applicants examined the effects of both inhibitors on both chemotherapeutics. Applicants also inverted the targeting antibodies by utilizing GFAPAB/(Indo or Halo)/PEG-HCC and Il-13RAB/(Doc or Vin)/PEG-HCC. 2 μM Halo/PEG-HCC and Indo/PEG-HCC without antibody targeting were used as controls, which were added with and without 100 nM Vin or Doc as Il-13RAB/Drug/PEG-HCC.
200 nM Il-13RAB/Doc/PEG-HCC caused a drop in cell number to 75% and to 72% (the level seen in the controls) in the presence of (untargeted) Halo/PEG-HCC and Indo/PEG-HCC, respectively. However, targeting of Halo caused a large change in Doc toxicity. The inclusion of an antibody with Halo/PEG-HCC changed the toxicity from 75% to 37%. The inclusion of an antibody with Indo/PEG-HCC changed the Doc toxicity from 72% to 50%.
Vin toxicity was also potentiated in the presence of targeted xenobiotic pump inhibitors. Furthermore, the targeting of Halo dropped the cell numbers from 45% (control number, untargeted) to 27% (targeted). […] However, when Indo was targeted to the GBM cells, this dropped to only 14%. […] Only the potentiating effect is shown, comparing targeted and untargeted xenobiotic pump inhibitors, so that the cell numbers in the presence of untargeted pump inhibitor are averaged to 100%.

[6] = 100 nM drug delivered using EGFR IgG, no pump inhibitor
[7] = drug via EGFR IgG plus Halo/PEG-HCC guided by anti-HER2
[8] = drug via EGFR IgG plus Indo/PEG-HCC guided by anti-HER2

Compound	total cell protein (% of the control) [1, 6]	total cell protein (% of the control) [1, 8]	total cell protein (% of the control) [2, 6]	total cell protein (% of the control) [2, 8]	potentiation of toxicity by Indo [3]	toxicity in the presence of both pump inhibitors (Halo and Indo) (GBM cells (BT111 cells))	toxicity on co-incubation with Halo (GBM cells (BT111 cells))	dead cell numbers when Halo is used in conjunction [4]	dye retention, chemotherapeutic drug alone [5]	dye accumulation in drug and inhibitor combinations [5]	increase of toxicity by pump inhibition by Halo (targeted vs untargeted, untargeted averaged to 100%) (GBM cells)	increase of toxicity by pump inhibition by Indo (targeted vs untargeted, untargeted averaged to 100%) (GBM cells)	retention of dyes (Rh123, BCECF, Hoe) [5]	dye retention, pump inhibitor loaded on PEG-HCC targeted by IL-13R IgGs [5]	further results
CC(=O)O[C@@]12CO[C@@H]1C[C@H](O)[C@@]1(C)C(=O)[C@H](O)C3=C(C)[C@@H](OC(=O)[C@H](O)[C@@H](NC(=O)OC(C)(C)C)c4ccccc4)C[C@@](O)([C@@H](OC(=O)c4ccccc4)[C@H]21)C3(C)C [Doc, docetaxel]	51%	68%	78%	68%	potentiated	greater level of toxicity than Halo or Indo alone	more enhanced by co-incubation with Halo	elevated	differentially increase dye retention	synergistic effect in dye accumulation	approximately 50%	40%	–	–	total cell protein (% of the control) [1, 7]: 30%; total cell protein (% of the control) [2, 7]: 25%; toxicity with both pump inhibitors (Halo and Indo) ([3]; 1 μM Halo and Indo as peptidyl-PEG-HCC): greatly by both on combination; potentiation of toxicity by Halo ([3]; 1 μM Halo as peptidyl-PEG-HCC): potentiated
COc1ccc2c3c([nH]c2c1)[C@H](C=C(C)C)N1C(=O)[C@@H]2CCCN2C(=O)[C@@H]1C3 [Fumitremorgin C]	–	–	–	–	–	–	–	–	–	–	–	–	increase dye retention of all dyes	–	–
O=C(CCCN1CCC(O)(c2ccc(Cl)cc2)CC1)c1ccc(F)cc1 [Halo, Haloperidol]	–	–	–	–	–	–	–	–	–	–	–	–	–	same experimental results were obtained	–
COc1ccc2c(c1)c(CC(=O)O)c(C)n2C(=O)c1ccc(Cl)cc1 [Indo, Indomethacin]	–	–	–	–	–	–	–	–	–	–	–	–	increase dye retention of all dyes	same experimental results were obtained	–
CCc1c2c(nc3ccc(O)cc13)-c1cc3c(c(=O)n1C2)COC(=O)[C@]3(O)CC [SN-38]	–	–	–	–	–	–	–	–	–	–	–	–	–	–	effect of Halo on toxicity in HADES compositions ([4]; FIGS. 2D-2E): minimally affected
CC[C@]1(O)C[C@@H]2CN(CCc3c([nH]c4ccccc34)[C@@](C(=O)OC)(c3cc4c(cc3OC)N(C)[C@H]3[C@@](O)(C(=O)OC)[C@H](OC(C)=O)[C@]5(CC)C=CCN6CC[C@]43[C@@H]65)C2)C1 [Vin, vinblastine]	65%	33%	87%	36%	potentiated	did not lead to a greater level of toxicity than Indo alone	moderately enhanced	elevated	differentially increase dye retention	synergistic effect in dye accumulation	approximately 50%	70%	–	–	effect of Halo on toxicity (in words) [1]: no potentiating effect; effect of Halo on toxicity (in words) [2]: slight effect; toxicity in the presence of Indo (GBM cells (BT111 cells); 1 μM Indo as peptidyl-PEG-HCC (YRWYGYTPQNVI)): more than doubled; cell number (% of control) (GBM cells; drug as Il-13RAB/Drug/PEG-HCC with antibody-targeted Halo/PEG-HCC (GFAPAB)): 27%; cell number (% of control) (GBM cells; drug as Il-13RAB/Drug/PEG-HCC with antibody-targeted Indo/PEG-HCC (GFAPAB)): 14%
